In patent US8541588B2, “Sulfonamide derivatives” (Pfizer Limited, priority 2009, dated 2013):

Molecular target: T1, Nav1.7 (or SCN9A) channel; HEK cells stably transfected with hSCN9A (Homo sapiens, UniProt Q15858)
T1 construct: expressed in transfected cells
Test: Nav1.7 block, PatchXpress 7000 automated whole-cell voltage clamp, estimated IC50 (EIC50)
Type: cell-based
Settings: PatchXpress platform; hSCN9A HEK cells held at V1/2 of inactivation; estimated IC50

T1 sequence (Q15858 whole entry): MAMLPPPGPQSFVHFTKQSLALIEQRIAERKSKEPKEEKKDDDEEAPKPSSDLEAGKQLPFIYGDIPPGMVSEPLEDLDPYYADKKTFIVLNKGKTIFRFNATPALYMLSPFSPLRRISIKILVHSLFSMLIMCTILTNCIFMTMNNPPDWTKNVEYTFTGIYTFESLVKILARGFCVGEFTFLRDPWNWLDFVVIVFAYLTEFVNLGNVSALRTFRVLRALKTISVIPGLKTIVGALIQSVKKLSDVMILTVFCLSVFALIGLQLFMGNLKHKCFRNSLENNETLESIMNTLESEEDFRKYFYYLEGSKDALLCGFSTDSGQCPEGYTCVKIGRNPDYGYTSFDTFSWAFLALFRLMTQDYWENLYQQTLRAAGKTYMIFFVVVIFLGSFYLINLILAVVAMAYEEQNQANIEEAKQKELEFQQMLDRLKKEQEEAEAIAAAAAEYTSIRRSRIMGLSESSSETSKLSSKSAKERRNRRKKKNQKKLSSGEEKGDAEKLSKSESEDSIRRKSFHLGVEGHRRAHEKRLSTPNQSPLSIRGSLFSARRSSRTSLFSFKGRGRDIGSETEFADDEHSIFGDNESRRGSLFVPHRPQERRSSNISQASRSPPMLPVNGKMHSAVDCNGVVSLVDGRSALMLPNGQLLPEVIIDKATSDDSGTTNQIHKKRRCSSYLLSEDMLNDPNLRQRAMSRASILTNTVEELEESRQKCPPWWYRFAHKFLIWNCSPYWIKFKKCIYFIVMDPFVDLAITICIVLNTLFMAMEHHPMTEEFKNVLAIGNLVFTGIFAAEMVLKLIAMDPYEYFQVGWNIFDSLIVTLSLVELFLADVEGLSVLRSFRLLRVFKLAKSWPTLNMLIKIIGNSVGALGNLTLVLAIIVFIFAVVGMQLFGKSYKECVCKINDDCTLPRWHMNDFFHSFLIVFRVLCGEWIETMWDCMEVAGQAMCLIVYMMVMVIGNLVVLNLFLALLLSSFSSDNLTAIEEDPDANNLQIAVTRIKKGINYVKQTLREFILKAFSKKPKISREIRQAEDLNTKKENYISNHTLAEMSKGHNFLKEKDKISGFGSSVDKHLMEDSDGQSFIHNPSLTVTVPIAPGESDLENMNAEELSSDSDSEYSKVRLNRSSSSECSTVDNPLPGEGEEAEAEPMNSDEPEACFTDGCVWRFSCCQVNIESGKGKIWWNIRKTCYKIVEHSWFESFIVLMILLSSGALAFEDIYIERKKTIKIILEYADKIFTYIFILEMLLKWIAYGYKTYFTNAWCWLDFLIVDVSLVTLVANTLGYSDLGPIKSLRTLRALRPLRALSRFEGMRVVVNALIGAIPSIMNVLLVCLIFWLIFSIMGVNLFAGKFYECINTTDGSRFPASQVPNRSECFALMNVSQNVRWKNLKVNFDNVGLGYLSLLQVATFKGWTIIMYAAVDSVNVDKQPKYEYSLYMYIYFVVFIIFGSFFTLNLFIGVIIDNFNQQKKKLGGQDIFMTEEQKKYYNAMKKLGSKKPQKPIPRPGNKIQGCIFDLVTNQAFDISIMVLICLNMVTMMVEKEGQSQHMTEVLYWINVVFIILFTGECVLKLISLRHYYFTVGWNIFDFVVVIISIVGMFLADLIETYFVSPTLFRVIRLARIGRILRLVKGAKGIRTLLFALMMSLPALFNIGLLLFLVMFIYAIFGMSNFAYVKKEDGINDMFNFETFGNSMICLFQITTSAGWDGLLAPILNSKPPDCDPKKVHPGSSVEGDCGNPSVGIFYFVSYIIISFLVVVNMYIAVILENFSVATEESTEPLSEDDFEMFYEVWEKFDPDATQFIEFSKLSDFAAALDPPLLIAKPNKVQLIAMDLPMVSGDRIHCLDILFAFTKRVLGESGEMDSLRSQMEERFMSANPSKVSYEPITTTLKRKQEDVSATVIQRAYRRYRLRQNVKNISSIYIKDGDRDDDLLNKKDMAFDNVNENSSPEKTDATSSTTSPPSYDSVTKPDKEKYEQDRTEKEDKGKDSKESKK

Row | IC50 [nM] | Structure (SMILES)
1 | 210 | O=S(=O)(Nc1nccs1)c1ccc(Oc2ccc(F)cc2-c2ccnn2CCO)c(F)c1 [Example 237, 3-fluoro-4-{4-fluoro-2-[1-(2-hydroxyethyl)-1H-pyrazol-5-yl]phenoxy}-N-1,3-thiazol-2-ylbenzenesulfonamide]
2 | 1580 | Cc1csc(NS(=O)(=O)c2ccc(Oc3ccccc3-c3ccccc3)c(C#N)c2)n1 [Example 101, 4-(biphenyl-2-yloxy)-3-cyano-N-(4-methyl-1,3-thiazol-2-yl)benzenesulfonamide]
3 | 3540 | N#Cc1cc(S(=O)(=O)Nc2ncns2)ccc1Oc1ccccc1-c1cc(F)cc(F)c1 [Example 53, 3-cyano-4-[(3′,5′-difluorobiphenyl-2-yl)oxy]-N-1,2,4-thiadiazol-5-ylbenzenesulfonamide]
4 | 1880 | Cn1nccc1-c1c(F)cccc1Oc1ccc(S(=O)(=O)Nc2ncns2)cc1C#N [Example 86, 3-cyano-4-[3-fluoro-2-(1-methyl-1H-pyrazol-5-yl)phenoxy]-N-1,2,4-thiadiazol-5-ylbenzenesulfonamide]
5 | 700 | Cc1cnsc1-c1ccccc1Oc1ccc(S(=O)(=O)Nc2nccs2)cc1F [Example 129, 3-fluoro-4-[2-(4-methylisothiazol-5-yl)phenoxy]-N-1,3-thiazol-2-ylbenzenesulfonamide]
6 | 2190 | Cn1nccc1-c1ccc(Oc2ccc(S(=O)(=O)Nc3nccs3)cc2C#N)c(Cl)c1 [Example 179, 4-(2-chloro-4-(1-methyl-1H-pyrazol-5-yl)phenoxy)-3-cyano-N-(thiazol-2-yl)benzenesulfonamide]
7 | 30 | O=S(=O)(Nc1ncns1)c1cc(Cl)c(Oc2ccccc2-c2ccccc2)cc1F [Example 270, 4-(biphenyl-2-yloxy)-5-chloro-2-fluoro-N-1,2,4-thiadiazol-5-ylbenzenesulfonamide]
8 | 30 | Cn1nccc1-c1cc(Br)ccc1Oc1ccc(S(=O)(=O)Nc2nccs2)cc1F [Example 226, 4-(4-bromo-2-(1-methyl-1H-pyrazol-5-yl)phenoxy)-3-fluoro-N-(thiazol-2-yl)benzenesulfonamide]
9 | 3140 | O=S(=O)(Nc1ncns1)c1ccc(Oc2ccn(Cc3ccc(Cl)cc3)n2)c(C(F)(F)F)c1 [Example 204, 4-{[1-(4-chlorobenzyl)-1H-pyrazol-3-yl]oxy}-N-1,2,4-thiadiazol-5-yl-3-(trifluoromethyl)benzenesulfonamide]

Same assay, conditions: estimated IC50; hSCN9A HEK cells, PatchXpress platform; Examples 283-814

Row | IC50 [nM] | Structure (SMILES)
10 | 11000 | Cc1ccnc(NS(=O)(=O)c2ccc(Oc3ccccc3-c3ccccc3)c(C#N)c2)n1 [Example 425, 4-(biphenyl-2-yloxy)-3-cyano-N-(4-methylpyrimidin-2-yl)benzenesulfonamide]
11 | 16 | O=S(=O)(Nc1ncns1)c1ccc(Oc2ccc(Cl)cc2C2CCNCC2)c(Cl)c1 [Example 477, 3-chloro-4-(4-chloro-2-piperidin-4-ylphenoxy)-N-1,2,4-thiadiazol-5-ylbenzenesulfonamide]
12 | 1800 | CCn1nc(C(F)(F)F)cc1-c1ccc(Oc2ccc(S(=O)(=O)Nc3ncc(F)cn3)cc2C#N)cc1 [Example 338, 3-cyano-4-{4-[1-ethyl-3-(trifluoromethyl)-1H-pyrazol-5-yl]phenoxy}-N-(5-fluoropyrimidin-2-yl)benzenesulfonamide]
13 | 840 | N#Cc1cc(S(=O)(=O)Nc2ncns2)cc(F)c1Oc1ccc(F)cc1-c1ccn[nH]1 [Example 459, 3-cyano-5-fluoro-4-[4-fluoro-2-(1H-pyrazol-5-yl)phenoxy]-N-1,2,4-thiadiazol-5-ylbenzenesulfonamide]
14 | 12000 | N#Cc1cccc(NS(=O)(=O)c2ccc(Oc3ccccc3-c3ccccc3)c(C#N)c2)n1 [Example 421, 4-(biphenyl-2-yloxy)-3-cyano-N-(6-cyanopyridin-2-yl)benzenesulfonamide]
15 | 33 | Cn1nccc1-c1cc(C(F)(F)F)ccc1Oc1ccc(S(=O)(=O)Nc2ncc(F)s2)cc1C#N [Example 718, 3-cyano-N-(5-fluoro-1,3-thiazol-2-yl)-4-[2-(1-methyl-1H-pyrazol-5-yl)-4-(trifluoromethyl)phenoxy]benzenesulfonamide]
16 | 110 | Cn1nccc1-c1cc(F)ccc1Oc1cc(F)c(S(=O)(=O)Nc2ncc(Cl)s2)cc1F [Example 613, N-(5-chloro-1,3-thiazol-2-yl)-2,5-difluoro-4-[4-fluoro-2-(1-methyl-1H-pyrazol-5-yl)phenoxy]benzenesulfonamide]
17 | 1000 | Cn1nc(C(F)(F)F)cc1-c1ccc(Oc2ccc(S(=O)(=O)Nc3nccs3)cc2F)cc1 [Example 684, 3-fluoro-4-{4-[1-methyl-3-(trifluoromethyl)-1H-pyrazol-5-yl]phenoxy}-N-1,3-thiazol-2-ylbenzenesulfonamide]
18 | 260 | N#Cc1cc(S(=O)(=O)Nc2ncns2)ccc1Oc1ccc(C(F)(F)F)cc1-c1cnccn1 [Example 671, 3-cyano-4-[2-pyrazin-2-yl-4-(trifluoromethyl)phenoxy]-N-1,2,4-thiadiazol-5-ylbenzenesulfonamide]
19 | 4.6 | Cn1nccc1-c1cc(OC(F)(F)F)ccc1Oc1ccc(S(=O)(=O)Nc2ncns2)cc1C#N [Example 795, 3-cyano-4-[2-(1-methyl-1H-pyrazol-5-yl)-4-(trifluoromethoxy)phenoxy]-N-1,2,4-thiadiazol-5-ylbenzenesulfonamide]
20 | 2400 | CCn1nc(C(F)(F)F)cc1-c1ccc(Oc2ccc(S(=O)(=O)Nc3ccc(F)cn3)cc2C#N)cc1 [Example 367, 3-cyano-4-{4-[1-ethyl-3-(trifluoromethyl)-1H-pyrazol-5-yl]phenoxy}-N-(5-fluoropyridin-2-yl)benzenesulfonamide]
21 | 130 | COCCn1nccc1-c1cc(Cl)ccc1Oc1cc(F)c(S(=O)(=O)Nc2nncs2)cc1Cl [Example 563, 5-chloro-4-{4-chloro-2-[1-(2-methoxyethyl)-1H-pyrazol-5-yl]phenoxy}-2-fluoro-N-1,3,4-thiadiazol-2-ylbenzenesulfonamide]
22 | 190 | Nc1cccc(-c2cc(F)ccc2Oc2cc(F)c(S(=O)(=O)Nc3ncns3)cc2F)n1 [Example 407, 4-[2-(6-aminopyridin-2-yl)-4-fluorophenoxy]-2,5-difluoro-N-1,2,4-thiadiazol-5-ylbenzenesulfonamide]
23 | 15 | CN1CC(n2nccc2-c2cc(F)ccc2Oc2cc(F)c(S(=O)(=O)Nc3cscn3)cc2Cl)C1 [Example 807, 5-Chloro-2-fluoro-4-{4-fluoro-2-[1-(1-methylazetidin-3-yl)-1H-pyrazol-5-yl]phenoxy}-N-1,3-thiazol-4-ylbenzenesulfonamide]
24 | 2.5 | O=S(=O)(Nc1ncns1)c1cc(Cl)c(Oc2ccc(OC(F)F)cc2C2CCNCC2)cc1F [Example 412, 5-chloro-4-[4-(difluoromethoxy)-2-piperidin-4-ylphenoxy]-2-fluoro-N-1,2,4-thiadiazol-5-ylbenzenesulfonamide]
25 | 2.1 | O=S(=O)(Nc1ncns1)c1cc(Cl)c(Oc2ccc(Cl)cc2C2CCNCC2)cc1F [Example 796, 5-chloro-4-(4-chloro-2-piperidin-4-ylphenoxy)-2-fluoro-N-1,2,4-thiadiazol-5-ylbenzenesulfonamide]
26 | 990 | N#Cc1cc(S(=O)(=O)Nc2cscn2)ccc1Oc1ccc(Cl)cc1-c1cn[nH]c1N [Example 393, 4-[2-(5-amino-1H-pyrazol-4-yl)-4-chlorophenoxy]-3-cyano-N-1,3-thiazol-4-ylbenzenesulfonamide]
27 | 500 | N#Cc1cc(S(=O)(=O)Nc2cscn2)ccc1Oc1ccc(Cl)cc1-c1cccc(N)n1 [Example 766, 4-[2-(6-aminopyridin-2-yl)-4-chlorophenoxy]-3-cyano-N-1,3-thiazol-4-ylbenzenesulfonamide]
28 | >1000 | COCc1cnn(-c2ccc(Oc3ccc(S(=O)(=O)Nc4nccs4)cc3C#N)cc2)c1 [Example 376, 3-cyano-4-{4-[4-(methoxymethyl)-1H-pyrazol-1-yl]phenoxy}-N-1,3-thiazol-2-ylbenzenesulfonamide]
29 | 400 | Cn1nccc1-c1cc(Cl)ccc1Oc1ccc(S(=O)(=O)Nc2ccc(F)cn2)cc1C#N [Example 608, 4-[4-chloro-2-(1-methyl-1H-pyrazol-5-yl)phenoxy]-3-cyano-N-(5-fluoropyridin-2-yl)benzenesulfonamide]
30 | 1300 | O=S(=O)(Nc1cscn1)c1cc(Cl)c(Oc2ccc(Cl)cc2-c2cnn[nH]2)cc1F [Example 777, 5-chloro-4-[4-chloro-2-(1H-1,2,3-triazol-5-yl)phenoxy]-2-fluoro-N--thiazol-4-ylbenzenesulfonamide]
31 | 540 | O=S(=O)(Nc1cscn1)c1ccc(Oc2ccc(OC(F)(F)F)cc2-c2cn[nH]c2)c(F)c1 [Example 612, 3-fluoro-4-[2-(1H-pyrazol-4-yl)-4-(trifluoromethoxy)phenoxy]-N-1,3-thiazol-4-ylbenzenesulfonamide]
32 | >1000 | COC(=O)c1cc(Oc2ccc(S(=O)(=O)Nc3nccs3)cc2C#N)ccc1-n1cc(Cl)cn1 [Example 495, methyl 2-(4-chloro-1H-pyrazol-1-yl)-5-{2-cyano-4-[(1,3-thiazol-2-ylamino)sulfonyl]phenoxy}benzoate]
33 | >300 | CCOCn1nncc1-c1cc(Cl)ccc1Oc1ccc(S(=O)(=O)Nc2nccs2)cc1C#N [Example 323, 4-{4-chloro-2-[1-(ethoxymethyl)-1H-1,2,3-triazol-5-yl]phenoxy}-3-cyano-N-1,3-thiazol-2-ylbenzenesulfonamide]

Same assay, conditions: estimated IC50; hSCN9A HEK cells, PatchXpress platform; Examples 815-1040

Row | IC50 [nM] | Structure (SMILES)
34 | 470 | N#Cc1cc(S(=O)(=O)Nc2ncns2)ccc1Oc1ccc(Cl)cc1-c1cc(N2CCC2)ncn1 [Example 877, 4-[2-(6-azetidin-1-ylpyrimidin-4-yl)-4-chlorophenoxy]-3-cyano-N-1,2,4-thiadiazol-5-ylbenzenesulfonamide]
35 | 72 | O=S(=O)(Nc1ncccn1)c1cc(Cl)c(Oc2ccc(Cl)cc2-c2ccnnc2)cc1F [Example 941, 5-chloro-4-(4-chloro-2-pyridazin-4-ylphenoxy)-2-fluoro-N-pyrimidin-2-ylbenzenesulfonamide]
36 | >30000 | Cn1nccc1-c1cc(Cl)ccc1Oc1ccc(S(=O)(=O)Nc2cncnc2)cc1C#N [Example 895, 4-[4-chloro-2-(1-methyl-1H-pyrazol-5-yl)phenoxy]-3-cyano-N-pyrimidin-5-ylbenzenesulfonamide]
